# In article PMC6199744, “Development of Chemical Proteomics for the Folateome and Analysis of the Kinetoplastid Folateome” (ACS Infectious Diseases, 2018):
# Like-named read-outs stand apart in the source and are kept apart here.
# Experiments:
# Type in all cases: binding
# [1] = molecular target: T1, HeLa cell extract proteins (Homo sapiens, UniProt O95197)
# T1 construct: endogenous in cells; host or cells: HeLa cell extract
# T1 sequence (O95197 1-1032): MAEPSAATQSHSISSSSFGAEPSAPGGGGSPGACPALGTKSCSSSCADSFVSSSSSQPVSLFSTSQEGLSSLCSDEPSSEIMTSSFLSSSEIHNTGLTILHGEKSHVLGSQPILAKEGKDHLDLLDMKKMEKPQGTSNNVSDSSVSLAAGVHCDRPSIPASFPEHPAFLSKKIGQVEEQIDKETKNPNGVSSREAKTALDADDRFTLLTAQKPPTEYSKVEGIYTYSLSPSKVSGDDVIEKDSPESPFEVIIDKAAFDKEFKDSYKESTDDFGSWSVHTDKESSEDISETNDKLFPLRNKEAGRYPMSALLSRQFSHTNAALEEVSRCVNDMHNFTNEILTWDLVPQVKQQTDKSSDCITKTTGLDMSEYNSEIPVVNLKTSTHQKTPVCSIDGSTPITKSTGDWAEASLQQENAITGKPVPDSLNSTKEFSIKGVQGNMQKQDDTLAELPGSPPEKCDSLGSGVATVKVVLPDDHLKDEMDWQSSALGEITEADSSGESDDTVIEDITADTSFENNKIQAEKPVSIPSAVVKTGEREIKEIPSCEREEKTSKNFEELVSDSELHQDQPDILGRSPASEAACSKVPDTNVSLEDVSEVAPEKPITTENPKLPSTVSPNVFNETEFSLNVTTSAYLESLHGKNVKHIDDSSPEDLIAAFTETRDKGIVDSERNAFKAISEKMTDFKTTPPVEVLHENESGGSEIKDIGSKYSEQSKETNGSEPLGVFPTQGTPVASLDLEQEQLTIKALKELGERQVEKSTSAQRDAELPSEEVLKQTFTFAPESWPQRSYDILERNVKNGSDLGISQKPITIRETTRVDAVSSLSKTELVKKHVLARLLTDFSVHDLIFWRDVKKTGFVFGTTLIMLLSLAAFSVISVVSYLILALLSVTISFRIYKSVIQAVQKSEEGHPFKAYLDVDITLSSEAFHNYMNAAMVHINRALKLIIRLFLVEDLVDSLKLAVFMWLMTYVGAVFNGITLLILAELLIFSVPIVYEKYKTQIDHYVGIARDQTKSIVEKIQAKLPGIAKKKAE
# [2] = molecular target: T2, HeLa cell extract proteins (Homo sapiens, UniProt Q13618)
# T2 construct: endogenous in cells; host or cells: HeLa cell extract
# [3] = molecular target: T3, HeLa cell extract proteins (Homo sapiens, UniProt P06730)
# T3 construct: endogenous in cells; host or cells: HeLa cell extract
# [4] = molecular target: T4, HeLa cell extract proteins (Homo sapiens, UniProt P31948)
# T4 construct: endogenous in cells; host or cells: HeLa cell extract
# [5] = molecular target: T5, HeLa cell extract proteins (Homo sapiens, UniProt P16152)
# T5 construct: endogenous in cells; host or cells: HeLa cell extract
# T5 sequence (P16152 1-277): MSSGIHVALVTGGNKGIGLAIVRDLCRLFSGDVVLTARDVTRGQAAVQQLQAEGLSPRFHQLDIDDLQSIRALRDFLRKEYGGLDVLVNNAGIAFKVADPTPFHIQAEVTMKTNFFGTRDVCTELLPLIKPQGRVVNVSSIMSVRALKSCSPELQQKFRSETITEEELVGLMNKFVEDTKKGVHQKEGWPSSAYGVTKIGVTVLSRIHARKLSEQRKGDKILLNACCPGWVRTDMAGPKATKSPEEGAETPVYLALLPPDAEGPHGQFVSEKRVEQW
# [6] = molecular target: T6, HeLa cell extract proteins (Homo sapiens, UniProt Q9BUJ2)
# T6 construct: endogenous in cells; host or cells: HeLa cell extract
# T6 sequence (Q9BUJ2 1-856): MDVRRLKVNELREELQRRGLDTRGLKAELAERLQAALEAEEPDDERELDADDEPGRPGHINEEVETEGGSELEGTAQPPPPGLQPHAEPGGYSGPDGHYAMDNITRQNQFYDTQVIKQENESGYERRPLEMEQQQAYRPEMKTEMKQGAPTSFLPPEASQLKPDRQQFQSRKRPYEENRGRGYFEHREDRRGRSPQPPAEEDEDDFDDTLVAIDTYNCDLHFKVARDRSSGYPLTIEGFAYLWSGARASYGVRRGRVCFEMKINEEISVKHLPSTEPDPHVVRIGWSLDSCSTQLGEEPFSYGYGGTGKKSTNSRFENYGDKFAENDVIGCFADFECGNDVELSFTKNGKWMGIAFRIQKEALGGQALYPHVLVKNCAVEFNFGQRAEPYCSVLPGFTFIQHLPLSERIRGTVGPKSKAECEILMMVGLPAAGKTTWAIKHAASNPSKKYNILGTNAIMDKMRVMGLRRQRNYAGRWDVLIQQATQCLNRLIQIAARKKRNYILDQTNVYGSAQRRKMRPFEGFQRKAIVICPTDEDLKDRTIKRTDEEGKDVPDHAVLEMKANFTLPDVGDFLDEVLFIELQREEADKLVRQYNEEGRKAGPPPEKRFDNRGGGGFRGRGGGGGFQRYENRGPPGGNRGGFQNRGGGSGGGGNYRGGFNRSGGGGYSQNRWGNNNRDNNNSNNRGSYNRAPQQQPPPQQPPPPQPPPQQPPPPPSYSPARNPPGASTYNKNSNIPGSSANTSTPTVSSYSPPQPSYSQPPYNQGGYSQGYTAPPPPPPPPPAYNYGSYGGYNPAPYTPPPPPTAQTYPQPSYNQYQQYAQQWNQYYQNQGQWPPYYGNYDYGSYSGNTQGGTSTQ
# [7] = molecular target: T7, HeLa cell extract proteins (Homo sapiens, UniProt Q9Y5Y0)
# T7 construct: endogenous in cells; host or cells: HeLa cell extract
# T7 sequence (Q9Y5Y0 1-555): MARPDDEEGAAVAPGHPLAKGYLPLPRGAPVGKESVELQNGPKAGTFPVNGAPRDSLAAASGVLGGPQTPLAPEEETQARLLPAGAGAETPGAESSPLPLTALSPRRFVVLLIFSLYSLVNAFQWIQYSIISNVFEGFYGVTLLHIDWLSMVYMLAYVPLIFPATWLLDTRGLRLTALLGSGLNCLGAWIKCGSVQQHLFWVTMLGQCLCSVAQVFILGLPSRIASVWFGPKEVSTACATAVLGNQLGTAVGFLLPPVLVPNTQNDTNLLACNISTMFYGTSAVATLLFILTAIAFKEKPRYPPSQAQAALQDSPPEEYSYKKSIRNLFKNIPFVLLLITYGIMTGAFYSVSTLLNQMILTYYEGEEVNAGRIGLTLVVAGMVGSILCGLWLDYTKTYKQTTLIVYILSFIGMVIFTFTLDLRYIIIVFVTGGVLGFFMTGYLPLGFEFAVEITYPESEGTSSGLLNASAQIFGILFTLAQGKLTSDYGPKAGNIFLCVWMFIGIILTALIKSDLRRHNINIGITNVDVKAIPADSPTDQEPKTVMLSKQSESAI
# [8] = HeLa, captured protein HNRNPUL1
# T2 sequence (Q13618 whole entry): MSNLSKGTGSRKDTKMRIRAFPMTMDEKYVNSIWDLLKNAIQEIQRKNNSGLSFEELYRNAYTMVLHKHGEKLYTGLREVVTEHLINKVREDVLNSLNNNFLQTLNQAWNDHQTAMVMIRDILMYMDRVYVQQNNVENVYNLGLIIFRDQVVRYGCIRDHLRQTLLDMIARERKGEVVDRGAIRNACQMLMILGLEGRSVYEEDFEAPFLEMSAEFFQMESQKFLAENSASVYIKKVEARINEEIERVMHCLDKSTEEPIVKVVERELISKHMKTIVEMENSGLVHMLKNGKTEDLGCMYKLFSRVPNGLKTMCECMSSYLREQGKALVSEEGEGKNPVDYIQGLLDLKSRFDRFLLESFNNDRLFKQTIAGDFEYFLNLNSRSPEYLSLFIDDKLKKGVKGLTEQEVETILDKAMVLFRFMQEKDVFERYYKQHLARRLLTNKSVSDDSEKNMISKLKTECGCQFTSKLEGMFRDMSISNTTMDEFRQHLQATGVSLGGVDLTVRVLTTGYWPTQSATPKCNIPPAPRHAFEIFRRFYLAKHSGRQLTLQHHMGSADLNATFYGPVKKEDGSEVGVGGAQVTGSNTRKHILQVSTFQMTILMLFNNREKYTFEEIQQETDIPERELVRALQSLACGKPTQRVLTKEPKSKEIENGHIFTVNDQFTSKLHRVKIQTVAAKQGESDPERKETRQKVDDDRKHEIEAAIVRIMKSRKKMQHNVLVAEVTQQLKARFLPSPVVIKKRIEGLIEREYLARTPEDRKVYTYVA
# T4 sequence (P31948 whole entry): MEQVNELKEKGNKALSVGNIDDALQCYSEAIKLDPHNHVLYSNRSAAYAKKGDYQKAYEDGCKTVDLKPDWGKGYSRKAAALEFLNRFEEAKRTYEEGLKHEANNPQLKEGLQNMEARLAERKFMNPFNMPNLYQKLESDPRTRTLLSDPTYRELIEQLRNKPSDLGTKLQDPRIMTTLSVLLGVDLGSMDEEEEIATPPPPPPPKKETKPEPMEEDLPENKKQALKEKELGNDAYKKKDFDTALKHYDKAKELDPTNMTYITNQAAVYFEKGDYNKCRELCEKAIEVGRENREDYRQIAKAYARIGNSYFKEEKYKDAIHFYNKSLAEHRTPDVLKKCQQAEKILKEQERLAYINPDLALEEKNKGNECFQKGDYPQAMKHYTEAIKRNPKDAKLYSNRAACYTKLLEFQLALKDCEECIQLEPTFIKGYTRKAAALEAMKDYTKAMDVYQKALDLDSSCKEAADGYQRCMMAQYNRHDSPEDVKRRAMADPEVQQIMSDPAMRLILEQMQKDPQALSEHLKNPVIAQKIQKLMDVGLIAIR
# T3 sequence (P06730 whole entry): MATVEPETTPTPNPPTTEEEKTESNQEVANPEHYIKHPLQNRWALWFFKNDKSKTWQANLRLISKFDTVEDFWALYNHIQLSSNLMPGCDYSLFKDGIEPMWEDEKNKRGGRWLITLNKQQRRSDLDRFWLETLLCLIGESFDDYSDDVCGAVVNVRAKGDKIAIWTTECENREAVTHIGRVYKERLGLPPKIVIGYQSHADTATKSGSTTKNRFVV
Structure (SMILES),"fold changes relative to vehicle control ([1]; protein RTN3, HeLa)","fold changes relative to vehicle control ([2]; captured protein CUL3, HeLa)","fold changes relative to vehicle control ([3]; HeLa, protein EIF4E)","fold changes relative to vehicle control ([4]; protein STIP1, HeLa)","fold changes relative to vehicle control ([5]; HeLa, protein CBR1)","fold changes relative to vehicle control ([6]; protein HNRNPUL1, HeLa)","fold changes relative to vehicle control ([7]; HeLa, protein FLVCR1)","fold changes relative to vehicle control ([2]; HeLa, protein CUL3)","fold changes relative to vehicle control ([3]; HeLa, captured protein EIF4E)","fold changes relative to vehicle control ([5]; protein CBR1, HeLa)","fold changes relative to vehicle control [6, 8]","fold changes relative to vehicle control ([7]; protein FLVCR1, HeLa)",fold changes relative to vehicle control [1],fold changes relative to vehicle control [2],fold changes relative to vehicle control [3],fold changes relative to vehicle control [4],fold changes relative to vehicle control [5],fold changes relative to vehicle control [6],fold changes relative to vehicle control [7]
Nc1nc2cccc(-c3ccccc3)c2n1Cc1ccc(Cl)c(Cl)c1 [compound 3],0.9,0.93,1,0.87,1.02,0.89,0.75,–,–,–,–,–,–,–,–,–,–,–,–
CCCCCCOc1ccc(Cc2cnc(N)nc2N)cc1 [compound 1],1,1.01,0.94,1.02,0.89,0.83,0.78,–,–,–,–,–,–,–,–,–,–,–,–
NCCCNc1ccc(C(=O)NC(CCC(=O)O)C(=O)O)cc1 (stereo not shown) [compound 7],0.84,–,–,0.92,–,–,–,0.91,1.1,0.92,1.07,0.57,–,–,–,–,–,–,–
CCCCCCOc1cccc(Cc2cnc(N)nc2N)c1 [compound 2],1.14,1.17,0.97,1.49,1.14,0.86,0.95,–,–,–,–,–,–,–,–,–,–,–,–
NCCOCCOCC(=O)Nc1nc2ncc(CNc3ccc(C(=O)NC(CCC(=O)O)C(=O)O)cc3)nc2c(=O)[nH]1 (stereo not shown) [compound 6],0.94,–,–,1.13,–,–,–,0.97,1.03,0.89,1.05,0.62,–,–,–,–,–,–,–
"Nc1nc2[nH]cc(CCc3ccc(C(=O)N[C@@H](CCC(=O)O)C(=O)O)cc3)c2c(=O)[nH]1 [PTX, pemetrexed]",–,–,–,–,–,–,–,–,–,–,–,–,0.85,0.92,0.99,1.01,0.8,1.04,0.59
"Nc1nc2c(c(=O)[nH]1)N(C=O)C(CNc1ccc(C(=O)N[C@@H](CCC(=O)O)C(=O)O)cc1)CN2 (stereo partly shown) [LEU, leucovorin]",0.97,–,–,0.97,–,–,–,0.92,1.09,0.81,0.99,0.57,–,–,–,–,–,–,–
